Several values for one entry are separate records, joined by “and”; a condition that tells them apart may be missing. Equal values may be shown once. Entries after “also recorded” stand apart in the source; their conditions may differ.
Test: In vivo pharmacokinetic analysis of UBMC-4 in mice (HPLC plasma, two-compartment model)
Design: species or system Balb/c Mus musculus
Protocol: A total of 30 mice (15 males and 15 females) was randomly selected and divided into two groups: one group received a 200 µL oral single dose of UBMC-4 at a concentration of 60 mM (equivalent to a 200 mg/kg dose), and a control group receiving 200 µL of vehicle (Kolliphor and water without UBMC-4) via oral route. Considering that the average weight of the mice was 25 g, the total amount of UBMC-4 administered was 5 mg. The compound was only administered orally, it was not used intravenously since one of the primary objectives was to evaluate its gastrointestinal absorption. […] In this way, we wanted to find the highest potential plasma concentrations before inducing toxicity. Blood samples were collected in EDTA tubes via intracardiac puncture performed under general anesthesia in both groups at sampling time points as follows: 0 h, 1 h, 2 h, 3 h, 5 h, 6 h, 8 h, and 24 h. Samples were then centrifuged at 1800 rpm at 4 °C for 10 min to collect plasma. For each sampling time point, 100 µL of mouse plasma were collected and 200 µL of acetone were added. This mixture was vortexed for 30 s and centrifuged at 10,000 rpm at 4 °C for 20 min. Supernatants were poured into vials for HPLC analysis following the method described below.
The amount of UBMC-4 in plasma samples was quantified by a HPLC method using a Hitachi Chromaster HPLC System with a Knauer C18 Column as follows: λ: 300 nm; temperature: 40 °C; run time: 13 min at a flow rate of 1.0 mL/min. A gradient of acetonitrile:water:methanol in a 30:40:30 ratio was used as mobile phase from baseline to minute 6, a 20:0:80 ratio from minute 7 to minute 10, and again a 30:40:30 ratio from minute 11. Linearity of the method was calculated for the 0.5 µg/mL to 20 µg/mL concentration range, with a r^2 (correlation coefficient) of 0.969 for the relationship between the area under the curve and UBMC-4 absorption at 300 nm.
The ADAPT 5 software was used to determine the most suitable model for the UBMC-4 plasma concentration profile. The maximum likelihood estimation method was used for modeling. After conducting trials where various models were used, the best one was chosen based on the -Log-Likelihood (-LL) and Akaike information criterion (AIC) values. Consequently, by comparing models, the one producing lower values amongst these two parameters would be the one that best fit the plasma concentration data and the most useful for pharmacokinetic studies. Moreover, based on the R-square value (r^2), we assessed the correlation between the values predicted by the model and those observed in UBMC-4 plasma concentration. The selected model was therefore used to elaborate simulations using different administration regimens and thus predicting what would happen with UBMC-4 concentration levels upon administration of repeated dosage. This simulation was also performed using ADAPT 5 [36, 66, 67]

[1] = two-compartment model, 200 mg/kg oral

With `Oc1ccc(-c2nc(-c3ccc4sc5ccccc5c4c3)c(-c3ccccc3)[nH]2)cc1` [UBMC-4, 4-(4-dibenzo-[b,d]-thien-2-yl-5-phenyl-1H-imidazol-2-yl)phenol] as the compound, how does the “time of highest plasma concentration” value (200 mg/kg oral single dose) read?
Its value is 3 h.

What about the oral absorption (200 mg/kg oral, Kolliphor RH40 formulation, 200 mg/kg) of the same compound?
Its oral absorption is “well absorbed; also recorded: absorbed orally”.

What about the concentration at 0 h (both sexes, Balb/c, mouse, plasma, 200 mg/kg oral single dose, 0 h) of the same compound?
Its concentration at 0 h is 0 ng/mL.

What about the concentration at 1 h (both sexes, Balb/c, mouse, plasma, 200 mg/kg oral single dose, 1 h) of the same compound?
Its concentration at 1 h is 2800 ng/mL and 6.69 µM.

What about the concentration at 2 h (both sexes, Balb/c, mouse, plasma, 200 mg/kg oral single dose, 2 h) of the same compound?
Its concentration at 2 h is 3200 ng/mL.

What about the concentration at 3 h (both sexes, Balb/c, mouse, plasma, 200 mg/kg oral single dose, 3 h) of the same compound?
Its concentration at 3 h is 4200 ng/mL.

What about the concentration at 5 h (both sexes, Balb/c, mouse, plasma, 200 mg/kg oral single dose, 5 h) of the same compound?
The concentration at 5 h was 3800 ng/mL.

What about the concentration at 6 h (both sexes, Balb/c, mouse, plasma, 200 mg/kg oral single dose, 6 h) of the same compound?
The concentration at 6 h was 3700 ng/mL.

And the concentration at 8 h (both sexes, Balb/c, mouse, plasma, 200 mg/kg oral single dose, 8 h)?
Its concentration at 8 h is 3600 ng/mL.

What about the concentration at 24 h (both sexes, Balb/c, mouse, plasma, 200 mg/kg oral single dose, 24 h) of the same compound?
The concentration at 24 h was 2400 ng/mL and 5.74 µM.

And the Cmax (both sexes, Balb/c, mouse, plasma, po, 200 mg/kg, 200 mg/kg oral single dose, read-out: highest plasma concentration (Cmax))?
The Cmax was 4200 ng/mL and 10 µM.

And the half-life (both sexes, Balb/c, mouse, plasma, two-compartment model, 200 mg/kg oral, read-out: estimated half-life (t1/2) (converted))?
The half-life was 1340 min.

What about the CLd/F intercompartmental clearance [1] of the same compound?
The CLd/F intercompartmental clearance was 0.2514 L/h.

And the CLt/F total clearance [1]?
Its CLt/F total clearance is 0.0357 L/h.

What about the Ka absorption constant [1] of the same compound?
Its Ka absorption constant is 0.6213 h⁻¹.

And the Vc/F central volume [1]?
Its Vc/F central volume is 0.6930 L.

And the Vp/F peripheral volume [1]?
The Vp/F peripheral volume was 0.4360 L.
